Measured values taken from patent publication US10314821B2, “Crystalline forms of 4-cyano-N-(2-(4,4-dimethylcyclohex-1-en-1-yl)-6-(2,2,6,6-tetramethyltetrahydro-2H-pyran-4-yl)pyridin-3-yl)-1H-imidazole-2-carboxamide” (Janssen Pharmaceutica NV, priority 2016, dated 2019).

How the values were obtained:
Format in all cases: physicochemical
[1] = Competitive slurry studies in water, form by XRPD
Description: Competitive slurry studies of Compound A, Forms II, IIA, IIB, III, IV, V, and VI were conducted at RT (room temperature, about 20° C.) and 50° C. in water. […] A small portion of the slurry was transferred to 50° C. after 2 days and analyzed using powder X-ray after being slurred at 50° C. for 2 hours (where a sample of the slurry was placed on an XRPD sample holder, the solvent allowed to evaporate under ambient conditions to yield a residue, and an XRPD measured for the residue). Complete conversion to Form I took place within 2 hours of heating.

[2] = Visual solubility of Compound A, Form I in solvents; details: 50 mg in 10 mL, stirred, heated to 40° C.; for solubility: organic solvent or mixture, thermodynamic from solid
From the text: An automated solid-state form screening of Compound A was done using a binary solvent system. Screening experiments consisted of an array of 13 solvents (water, methanol, ethanol, acetone, acetonitrile, isopropyl alcohol, ethyl acetate, toluene, tetrahydrofuran (THF), dichloromethane, 2-butanone (MEK), 1-butanol, and heptane) under slow evaporation crystallization conditions. Specifically, saturated solutions of Compound A (prepared as described in Example 1 above) in 13 different solvents were prepared by adding solid powder of Compound A, Form I (50 mg, prepared as described in Example 1 above) and the selected solvent to 20 mL vials. The resulting solutions were stirred and heated to 40° C. All preparations dissolved quickly except in water, toluene, and heptane. Table 1 provides a summary of the visual solubility of Compound A, Form I in the noted solvents.

[3] = Moisture sorption analysis (DVS)
Description: The moisture sorption analysis was performed using a Hiden Isochema system Model IGAsorp. The sample was run in a stainless-steel mesh crucible. The sample was initially dried at 60° C. for 30 minutes then the moisture profile was evaluated by monitoring vapor adsorption/desorption over the range of 0 to 90% relative humidity at 25° C. The moisture profile consisted of 2 cycles of vapor adsorption/desorption.

[4] = Hygroscopicity and water solubility by USP methods; details: isolated solid, freebase
Description: The isolated solid (Compound A, as a freebase) was a white crystalline solid, hygroscopic and insoluble in water as determined by USP methods. […] The XRD for Form I of Compound A differed from the XRD of a sample of the HCl salt of Compound A (e.g., FIG. 15). […] (equivalent to 0.23 mole of water) due to surface water loss and 0.5% between 182° C. and 219° C. due to melting/decomposition (as shown in FIG. 12). This differed from the TGA spectrum of the HCl salt of Compound A (e.g., FIG. 17).

[5] = Slurry studies in organic solvents, form by XRPD
Description: Small scale saturated solutions of Compound A, Form I (prepared as described in Example 1 above) in the organic solvents noted in Example 2, except water, toluene, or heptane, were prepared as follows. Compound A, Form I (5-10 mg) was added to 2 mL HPLC vials and the selected solvent (50 μL) was added. The resulting slurries were stirred at 300 rpm for up to 1 day. At 1 hour and 1 day time-points, a sample of each slurry was placed on an XRPD sample holder and the solvent evaporated under ambient conditions to yield a solid residue which was then analyzed by X-ray powder diffraction.

[6] = at the end of a second moisture sorption-desorption cycle

CC1(C)CC=C(c2nc(C3CC(C)(C)OC(C)(C)C3)ccc2NC(=O)c2nc(C#N)c[nH]2)CC1 [Compound A, Form II, 4-cyano-N-[2-(4,4-dimethylcyclohex-1-en-1-yl)-6-(2,2,6,6-tetramethyltetrahydro-2H-pyran-4-yl)pyridine-3-yl]-1H-imidazole-2-carboxamide]
Time to complete conversion to Form I ([1]; competitive slurry in water at RT (about 20° C.)): 3 days

CC1(C)CC=C(c2nc(C3CC(C)(C)OC(C)(C)C3)ccc2NC(=O)c2nc(C#N)c[nH]2)CC1 [Compound A, Form I, 4-cyano-N-[2-(4,4-dimethylcyclohex-1-en-1-yl)-6-(2,2,6,6-tetramethyltetrahydro-2H-pyran-4-yl)pyridine-3-yl]-1H-imidazole-2-carboxamide]
Visual Solubility ([2]; 1-Butanol): Dissolve
Visual Solubility ([2]; Acetone): Dissolve
Visual Solubility ([2]; Acetonitrile): Dissolve
Visual Solubility ([2]; Dichloromethane): Dissolve
Visual Solubility ([2]; Ethanol): Dissolve
Visual Solubility ([2]; Ethyl Acetate): Dissolve
Visual Solubility ([2]; Heptane): Suspension
solubility ([2]; IPA (isopropyl alcohol), IPA): > 5000 µg/mL
Visual Solubility ([2]; IPA): Dissolve
Visual Solubility ([2]; Methanol): Dissolve
Visual Solubility ([2]; MethylEthylKetone (MEK)): Dissolve
Visual Solubility ([2]; THF): Dissolve
Visual Solubility ([2]; Toluene): Suspension
Visual Solubility ([2]; Water): Suspension
solubility ([2]; methyl ethyl ketone (MEK, 2-butanone), MethylEthylKetone (MEK)): > 5000 µg/mL
solubility ([2]; 1-Butanol): > 5000 µg/mL
solubility ([2]; Acetone): > 5000 µg/mL
solubility ([2]; Acetonitrile): > 5000 µg/mL
solubility ([2]; Dichloromethane): > 5000 µg/mL
solubility ([2]; Ethanol): > 5000 µg/mL
solubility ([2]; Ethyl Acetate): > 5000 µg/mL
solubility ([2]; Methanol): > 5000 µg/mL
solubility ([2]; tetrahydrofuran (THF), THF): > 5000 µg/mL
Relative thermodynamic stability of polymorphs ([1]; as indicated by competitive slurry, hypothesized): most thermodynamically stable polymorph
Hygroscopicity by DVS ([3]; 0 to 90% relative humidity at 25° C.): hygroscopic
Crystalline form upon humidity cycling (XRPD before and after DVS) ([3]; 2 cycles of adsorption/desorption): did not change
Moisture retained [3, 6]: 1.8%
Moisture retained, equivalent mole of water [3, 6]: 0.47 mole of water
Moisture adsorption ([3]; up to 90% RH, 25° C.): 41.8%
Hygroscopicity [4]: hygroscopic
Solubility in water [4]: insoluble
Saturated Conc. ([5]; 1-Butanol slurry): 90 mg/mL
Saturated Conc. ([5]; Acetone slurry): 130 mg/mL
Saturated Conc. ([5]; Acetonitrile slurry): 80 mg/mL
Saturated Conc. ([5]; DCM (dichloromethane) slurry): 210 mg/mL
Saturated Conc. ([5]; Ethanol slurry): 110 mg/mL
Saturated Conc. ([5]; Ethyl Acetate slurry): 120 mg/mL
Saturated Conc. ([5]; IPA (isopropyl acetate) slurry): 95 mg/mL
Saturated Conc. ([5]; Methanol slurry): 80 mg/mL
Saturated Conc. ([5]; THF (tetrahydrofuran) slurry): 420 mg/mL
XRPD pattern of solids isolated from solvent slurries ([5]; all solvent slurries except THF and DCM): consistent with Form I
